Source: patent publication US20160069887A1, “BIOMARKERS FOR PROGNOSIS” (ISIS INNOVATION LIMITED, priority 2013, published 2016)
Blank lines part the entries; values can stand above or below the molecule they belong to. Where a SMILES comes first, the peptide text is derived from it. The star is where a group is joined. Cbz = O=C(OCc1ccccc1)*

Tests used:
[1] = system: U2OS cells; assay: Immunoblot for apoptosis (PARP) and autophagy (LC3 cleavage); format: cell-based; conditions: co-treatment SAHA and 3-methyladenine (10 mM) for 18 hr
[2] = system: Flag-HDAC6 stable inducible cell line; assay: Immunoblot of endogenous HR23B and cleaved caspase 3 upon induction of Flag-HDAC6; conditions: for HDAC6-dependent down-regulation of HR23B: Dox-induced Flag-HDAC6, 3MA 5 and 10 mM, 17-AAG 0.1 or 1 μM, tubastatin 10 μM, bortezomib 48 hr
[3] = system: U2OS cells; assay: Global ubiquitination (His6-ubiquitin, Ni2+ pull-down, anti-His immunoblot); format: cell-based; conditions: for global ubiquitination, SAHA and MG132 combined: SAHA 5 μM 20 hr and MG132 20 μM 4 hr
Procedure: Cell lysates and Ni^2+ pull-down eluates were analyzed by immunoblotting with anti-His as described. The input HR23B is shown underneath, together with actin levels.
Ni^2+ pull-down eluates were analyzed by immunoblotting with anti-His. The input HR23B level is shown underneath, together with actin levels.
Transfected cells in a 10 cm dish were washed twice with ice-cold PBS and harvested into 1 ml of 8M urea, 0.1 M Na2HPO4/NaH2PO4, 0.01M Tris-HCl, and pH8.0. Lysates were sheared by taking through 23 gauge needle to reduce viscosity. Protein concentration was measured with Bradford (Bio-Rad) and normalised. About 100 μl of lysate was mixed with 4×SDS loading buffer for input. Then 900 μl of lysate was incubated with 70 μl of a 50% slurry of nickel (Ni^2+-NTA)-agarose beads (Qiagen), 5 mM imidazole and 10 mM β-mercaptoethanol overnight at 4° C. The beads were collected by 1 min centrifugation at 8,000 rpm and washed with 750 μl of the following buffers with 5 min mixing at room temperature for each washing step: twice with 8M urea, 0.1M Na2HPO4/NaH2PO4, 0.01 M Tris-HCl, pH 8.0, 10 mM β-mercaptoethanol and 0.1% Triton X-100; three times with 8M urea, 0.1M Na2HPO4/NaH2PO4, 0.01M Tris-HCl, pH 6.3, 10 mM β-mercaptoethanol and 0.1% Triton X-100. The bound proteins were then eluted with 100 μl of elution buffer (200 mM imidazole, 5% SDS, 150 mM Tris-HCl pH6.8, 30% glycerol, 720 mM β-mercaptoethanol, 0.005% bromophenol blue) for 30 min incubation followed by 10 min spin at 13,000 rpm. Samples were heated to 95° C. for 5 min, cooled, and a typical volume of 30 μl loaded on each lane for immunoblot analysis.

[4] = system: U2OS cells; assay: Visualisation of autophagosomes by anti-LC3 immunostaining; format: cell-based
Procedure: Counter-stain with DAPI was superimposed for each image.
Cells seeded onto coverslips were washed in PBS and fixed in 3.7% formaldehyde for 15 min. Cells were permeabilised in PBS containing 0.5% Triton X-100 for 5 min and then blocked in 5% FCS/PBS for 30 min at room temperature before incubation with primary antibody as indicted. Coverslips were washed in PBS containing 0.05% Tween-20 and incubated with corresponding secondary antibodies for 30 min at room temperature. Alexa Fluro 488 (green fluorescence) or Alexa Fluor 594 (red fluorescence) (Molecular Probes). Finally coverslips were washed extensively in PBS containing 0.05% Tween-20 and mounted onto microscope slides using Vectashield containing DAPI (Vector Laboratories).

[5] = system: HUT78, MYLA (CTCL), A2058, A375 (melanoma), HCT116 and HCT15 (CRC); assay: Immunoblot of autophagy markers and HR23B in tumour cell lines treated with HDAC inhibitors; format: cell-based; conditions: for autophagy markers (LC3 cleavage, LAMP1, cathepsin D): immunoblot after 18 hr or 24 hr treatment
[6] = system: patients after potentially-curative surgery for stage II/III colorectal cancer; conditions: 1167 rofecoxib patients; median follow-up 4.84 years; cited from earlier work
[7] = target: T1, Flag-HDAC6 (wild-type, full length, ectopic) (human, UniProt Q9UBN7 1-1215); assay: anti-Flag co-immunoprecipitation of Flag-HDAC6 from co-transfected U2OS cells, anti-Myc immunoblot
T1 construct: Expressed by transfection or by doxycycline induction in U2OS cells; also called pcDNA-Flag-HDAC6; WT HDAC6; not shown: Flag tag
T1 sequence: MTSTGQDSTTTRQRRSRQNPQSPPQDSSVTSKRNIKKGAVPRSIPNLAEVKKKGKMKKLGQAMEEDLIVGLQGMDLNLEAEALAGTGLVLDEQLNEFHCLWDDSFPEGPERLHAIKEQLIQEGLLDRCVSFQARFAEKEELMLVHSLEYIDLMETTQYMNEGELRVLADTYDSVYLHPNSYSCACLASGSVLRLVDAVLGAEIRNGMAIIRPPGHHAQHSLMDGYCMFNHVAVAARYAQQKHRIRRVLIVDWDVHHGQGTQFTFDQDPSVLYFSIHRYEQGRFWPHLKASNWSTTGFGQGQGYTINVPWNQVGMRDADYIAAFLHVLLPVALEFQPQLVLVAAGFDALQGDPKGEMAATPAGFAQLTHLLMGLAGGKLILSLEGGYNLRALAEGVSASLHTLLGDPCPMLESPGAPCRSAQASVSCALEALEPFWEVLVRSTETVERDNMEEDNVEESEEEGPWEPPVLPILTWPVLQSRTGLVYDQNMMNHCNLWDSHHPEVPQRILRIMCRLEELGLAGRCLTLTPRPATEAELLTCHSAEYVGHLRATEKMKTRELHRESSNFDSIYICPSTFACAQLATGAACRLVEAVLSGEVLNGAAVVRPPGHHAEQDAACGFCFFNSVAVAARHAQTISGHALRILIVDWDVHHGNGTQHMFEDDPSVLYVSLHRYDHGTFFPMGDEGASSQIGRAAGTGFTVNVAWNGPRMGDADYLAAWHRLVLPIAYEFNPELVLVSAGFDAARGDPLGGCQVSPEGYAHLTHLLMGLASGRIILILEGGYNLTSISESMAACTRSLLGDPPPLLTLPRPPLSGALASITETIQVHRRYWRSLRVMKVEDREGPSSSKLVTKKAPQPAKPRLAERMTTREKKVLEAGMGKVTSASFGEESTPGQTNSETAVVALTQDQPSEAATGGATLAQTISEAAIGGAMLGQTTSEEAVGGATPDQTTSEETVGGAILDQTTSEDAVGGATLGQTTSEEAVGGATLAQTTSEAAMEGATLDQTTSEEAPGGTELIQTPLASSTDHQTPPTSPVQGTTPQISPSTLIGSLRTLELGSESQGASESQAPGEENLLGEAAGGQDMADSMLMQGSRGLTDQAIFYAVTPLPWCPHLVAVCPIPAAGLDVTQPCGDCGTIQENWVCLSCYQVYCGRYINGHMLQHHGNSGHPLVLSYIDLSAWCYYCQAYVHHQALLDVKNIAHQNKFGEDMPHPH

Molecule: Cn1cnc(N)c2ncnc1-2 [3-MA, 3-methyladenine]
level of apoptosis [1]: an enhanced level of apoptosis was apparent
HDAC6-dependent down-regulation of HR23B [2]: failed to affect down-regulation of HR23B by HDAC6

Molecule: C=CCNC1=C2C[C@@H](C)C[C@H](OC)[C@H](O)[C@@H](C)/C=C(\C)[C@H](OC(N)=O)[C@@H](OC)/C=C\C=C(/C)C(=O)NC(=CC1=O)C2=O [17-AAG]
HDAC6-dependent down-regulation of HR23B [2]: HDAC6 failed to down-regulate HR23B

Molecule: CC(C)C[C@@H](C=O)NC(=O)[C@H](CC(C)C)NC(=O)[C@H](CC(C)C)NC(=O)OCc1ccccc1 [MG132] (Cbz-Leu-Leu-Leu-aldehyde)
global ubiquitination, SAHA and MG132 combined [3]: even greater level of ubiquitination
global ubiquitination, single agent ([3]; SAHA 5 μM 20 hr or MG132 20 μM 4 hr, vs untreated): increase in ubiquitination

Molecule: O=C(CCCCCCC(=O)Nc1ccccc1)NO [SAHA, N-hydroxy-N′-phenyloctanediamide]
level of apoptosis [1]: an enhanced level of apoptosis was apparent
autophagosomes when ectopic HR23B was expressed ([4]; SAHA 10 μM for 18 hr, + vs − doxycycline): less evident
visual appearance of autophagosomes ([4]; SAHA 10 and 20 μM): visual appearance of autophagosomes in cells
global ubiquitination, SAHA and MG132 combined [3]: even greater level of ubiquitination
level of HR23B ([5]; at increasing SAHA concentration, coinciding with autophagocytic markers): decreased levels of HR23B
autophagy markers (LC3 cleavage, LAMP1, cathepsin D) [5]: caused LC3 cleavage as well as the appearance of LAMP1 and cathepsin D

Molecule: CS(=O)(=O)c1ccc(C2=C(c3ccccc3)C(=O)OC2)cc1 [rofecoxib]
deaths [6]: 241
recurrences [6]: 297

Molecule: CCCC(CCC)C(=O)O [valproic acid, 2-Propylpentanoic acid]
autophagy markers (LC3 cleavage, LAMP1, cathepsin D) [5]: resulted in similar effects

Molecule: tubastatin
HDAC6-dependent down-regulation of HR23B [2]: did not impact on the HDAC6-dependent down-regulation of HR23B
increase in HR23B upon 17-AAG treatment ([2]; tubastatin 10 μM together with 17-AAG): did prevent the increase in HR23B upon 17-AAG treatment

binding result [7]: no binding
B1: HR23B ΔUbL, myc/his tagged (other)
chain: AVSTPAPATTQQSAPASTTAVTSSTTTTVAQAPTPVPALAPTSTPASITPASATASSEPAPASAAKQEKPAEKPAETPVATSPTATDSTSGDSSRSNLFEDATSALVTGQSYENMVTEIMSMGYEREQVIAALRASFNNPDRAVEYLLMGIPGDRESQAVVDPPQAASTGAPQSSAVAAAAATTTATTTTTSSGGHPLEFLRNQPQFQQMRQIIQQNPSLLPALLQQIGRENPQLLQQISQHQEHFIQMLNEPVQEAGGQGGGGGGGSGGIAEAGSGHMNYIQVTPQEKEAIERLKALGFPEGLVIQAYFACEKNENLAANFLLQQNFDED
notes: not shown: myc/his tag from the pcDNA3.1 (+)/Myc-His vector
